{
  "source": "patent US20260365662A1",
  "about": "“ISOANDROGRAPHOLIDE ANALOGS AND METHOD FOR TREATMENT USING THE SAME” (Enveda Therapeutics, Inc., priority 2023, published 2026)",
  "system": "female BALB/c mouse",
  "experiment": "MC-903 induced atopic dermatitis model, therapeutic mode, low doses (Example 16)",
  "format": "in vivo",
  "settings": "p.o. twice a day; for dermatitis severity scores: 0.01 to 10 mg/kg, vs MC-903 vehicle control",
  "method": "Experimental details: Preclinical animal model of atopic dermatitis was developed by MC-903, a vitamin-D analogue. In the current study, the test item Compound 2 was screened in therapeutic mode, to evaluate its efficacy in MC-903 induced AD model. 2 nmol of MC-903 was topically applied to 8-10 weeks old female BALB/c mouse from G2-G8 group at a volume of 50 μl/mouse on back skin on every alternate day for 14 days to induced disease. For the G1 group, (Normal+ethanol control) the same volume of ethanol that was used to solubilize MC-903 was applied. Clobetasol (0.05%, 15 mg/mouse) was applied topically once a day to G3 group animals. Compound 2 was administered per oral twice a day at 0.01, 0.1, 1, 3 & 10 mg/kg to respective treatment groups (G4-G8) for 14 days. On the day of MC-903 administration, test compounds were dosed one hour prior to MC-903 insult. Clinical scores to assess the disease intensity were measured from visual examination for erythema, scaling and back skin thickness using dial caliper. All the scores were carried by blinded observers to treatment groups. Disease severity was assessed by dermatitis severity scores.",
  "data": [
    {"smiles": "C[C@@]12CCC(=O)N[C@@](C)(CO)[C@H]1CC[C@@]1(C)O[C@H](C3=CCOC3=O)C[C@@H]21", "note": "[Compound 2, (2S,3aR,5aS,6R,10aR,10bS)-6-(hydroxymethyl)-3a,6,10a-trimethyl-2-(2-oxo-2,5-dihydrofuran-3-yl) dodecahydro-8H-benzofuro[5,4-c]azepin-8-one]", "values": [
      {"measurement": "minimal effective dose", "setting": "Mus musculus, po, 336 h, doses 0.01, 0.1, 1, 3, 10 mg/kg, read-out: lowest active dose (dermatitis severity scores)", "result": 0.1, "unit": "mg/kg"},
      {"measurement": "dermatitis severity scores", "result": "significant dose dependent decrease"},
      {"measurement": "dermatitis severity scores", "setting": "listed as compound 2", "result": "significantly reduces"}
    ]}
  ]
}
